{"source": "patent US6835386B2", "about": "“Collar containing a novel gel formulation to control arthropod infestation of animals” (Pfizer Inc., priority 1998, dated 2004)", "assay": "Miscibility of insecticide in gel formulation", "format": "physicochemical", "text": "Thus, the improved gel formulation allows permeation of an effective amount of the active ingredient to occur in about 3 days, as compared to about 3 to 5 weeks for prior formulations. As a result of this shortened initial permeation period, the device is ready for use more quickly after manufacture, thereby reducing or eliminating the amount of time that such devices must be stored prior to use. Additional advantages of the device of the present invention include eliminating several of the problems associated with the use of a mineral oil-based gel, such as leaving an oily residue on the animal, the potential for triggering skin irritations, and inhibiting the process of sealing the reservoir. In addition, insecticides such as cypermethrin which are not miscible in mineral oil-based gels are miscible in the improved gel formulation of the present invention."}
{"smiles": "CC1(C)C(C=C(Cl)Cl)C1C(=O)OC(C#N)c1cccc(Oc2ccccc2)c1", "note": "(centres unmarked) [cypermethrin]", "values": [{"measurement": "Miscibility", "setting": "in mineral oil-based gels", "result": "not miscible"}, {"measurement": "Miscibility", "setting": "in the improved gel formulation of the present invention", "result": "miscible"}]}
